Source: paper PMC9586926, “An efflux-susceptible antibiotic-adjuvant with systemic efficacy against mouse infections” (Scientific Reports, 2022)
Where a SMILES comes first, the peptide text is derived from it. [ ]: non-standard residue; d: D form. The star is where a group is joined. 12Ado = NCCCCCCCCCCCC(=O)O; Decanoyl = CCCCCCCCCC(=O)*; Dab = NCC[C@H](N)C(=O)O

Tests used:
[1] = Binding to lipopolysaccharide, displacement of mono-dansylated polymyxin B; set-up: species or system E. coli; details: 2 µM DPMB, 3 µg/ml LPS, 1.5 h, compared with PMB; two independent experiments
Description: Affinity to lipopolysaccharide (LPS) was assessed using fluorescent measurements of displaced mono-dansylated polymyxin B (DPMB)[68]. 180 µl of 5 mM HEPES containing 2 µM DPMB and 3 µg/ml LPS (from E. coli) were dispensed into black microtiter plates and mixed with 20 µl of HEPES containing serial twofold dilutions of lipopeptides. Plates were incubated in the dark for 1.5 h at room-temperature and fluorescence (excitation: 340 nm; emission: 485 nm) was recorded immediately thereafter (BioTek Instruments Synergy HT; Winooski, VT, USA).

E. coli 25922 = experiment: Cytoplasmic membrane depolarization, DiSC3(5) fluorescence; format: cell-based, Escherichia coli; details: C10BBc12B up to 10 µM; PMB 2.5 µM
Description: Lipopeptides aptitude to depolarize the CM was evaluated using fluorescent measurements of the transmembrane potential sensitive dye 3,3′-Dipropylthiadicarbocyanine iodide (DiSC3(5))[69]. Bacteria (O.D.600 nm = 0.1) were washed by centrifugation at 10,000 RCF for 5 min, supernatant aspiration, and pellet resuspension in 5 mM HEPES containing 20 mM glucose, 50 mM KCl and 0.2 mM EDTA (pH = 7.2). This suspension was mixed with DiSC3(5) (400 µM in DMSO) to reach a final DiSC3(5) concentration of 4 µM and was incubated in the dark for 1 h at 37 °C with shaking. Then, 180 µl of this mixture were dispensed into black microtiter plates and fluorescence was recorded (excitation: 622 nm; emission: 670 nm) at 37 °C with shaking until baseline stabilization (BioTek Instruments Synergy HT; Winooski, VT, USA). Finally, 20 µl of HEPES containing serial twofold dilutions of lipopeptides were added and fluorescence was recorded for up to 30 min at the same conditions.

[2] = […] S.C., mice plasma, UPLC-MS
Description: Animal procedures were reviewed and approved by the Institutional Animal Care and Use Committee (ethics no. IL-0800519, IL-0760711, IL-0550618, IL-0320320, IL-1270821) and performed in accordance with the “Guide for the Care and Use of Laboratory Animals”, published by the US National Research Council[70]. The study is reported in accordance with ARRIVE guidelines. All protocols employed 4–5-week-old male ICR mice, weighing 20–25 g (Envigo; Jerusalem, Israel). Mice were kept on a 12 h light/dark cycle and provided with food and water ad-libitum. At the designated experimental end-points mice were euthanized by means of CO2 asphyxiation. […]
To assess lipopeptides circulating concentrations, mice (N = 3 per group) were S.C. administered with lipopeptides solutions (0.2 ml), sacrificed at specified times afterwards and their blood was aseptically collected. […] 0.5 ml of the supernatant were diluted 2-folds with Milli-Q water and analyzed by UPLC-MS using a C18 column. Quantification was performed using a calibration-curve generated with similarly processed blood samples, initially spiked with known lipopeptide concentrations. […] Quantification was performed using a calibration-curve generated with fresh lipopeptide solutions of known concentrations prepared in Milli-Q water.

K. pneumoniae 1287 = experiment: Combination with antibiotics, modified checkerboard titration; format: cell-based, Klebsiella pneumoniae
Description: MIC was determined according to the broth microdilution method: antimicrobials were subjected to serial twofold dilutions in LB medium, and incubated with 5 × 10^5 CFU/ml of bacteria (final volume of 200 µl) for 18–24 h at 37 °C. Then, O.D.620 nm was measured (BioTek Instruments Synergy HT; Winooski, VT, USA), and the MIC was defined as the lowest antimicrobial concentration for which no increase in O.D.620 nm was evident, compared to the untreated control.
Lipopeptides and antibiotics combinations were assessed using a modified version of the checkerboard titration method: Antibiotics MIC was determined in LB medium containing sub-inhibitory lipopeptide concentrations. The sensitization factor (SF)[46] was then calculated by SF = MICA/MICC, where “MICA” is the antibiotic MIC in absence of an adjuvant and “MICC “ is the antibiotic MIC in presence of an adjuvant, for a specified adjuvant concentration. Combinations were classified as synergistic when antibiotics MIC were decreased by > 4 folds. Alternatively, the fractional inhibitory concentration index (FICI) was calculated by FICI = MICC1/MICA1 + MICC2/MICA2, where “MICC1” and “MICC2” respectively specify the antibiotic and the adjuvant MIC values upon their combination, whereas “MICA1” and “MICA2” respectively specify the antibiotic and the adjuvant MIC values when tested individually. Combinations were classified as synergistic for FICI < 0.5.

murine RBC = experiment: Hemolysis; format: cell-based; details: 1% hematocrit murine RBC, 3 h, 37 °C
Description: Permeabilization of red blood cells (RBC) was evaluated using absorbance measurements of extracellular hemoglobin. Serial twofold dilutions of lipopeptides were incubated with 1% hematocrit of murine RBC for 3 h at 37 °C with shaking. Samples were then centrifuged at 20,000 RCF for 5 min, and absorbance of the supernatants was measured at 450 nm (BioTek Instruments Synergy HT; Winooski, VT, USA). Percent hemolysis was then calculated by (AS − AN)/(AP − AN) × 100; where AS, AN, and AP represent the absorbance of the sample, negative control (PBS) and positive control (Milli-Q water), respectively. LC50 values were extracted from trend-lines generated for linear-regions of plots correlating lipopeptide concentrations and percent hemolysis.

[3] = Acute toxicity, maximal tolerated dose; format: in vivo, mice; details: S.C., up to 40 mg/kg, seven-day monitoring
Description: The study is reported in accordance with ARRIVE guidelines.
The maximal tolerated dose (MTD) was determined after sub-cutaneous (S.C.) administration of lipopeptides solutions (0.2 ml). Mice (N = 3 per group) were monitored for up to 7 days and their physiological condition was scored on a scale of 1 to 6, in which a score of 1 indicates no apparent signs of distress, and a score of 6 signifies severe distress necessitating the mice immediate euthanasia.

## CCCCCCCCCC(=O)N[C@@H](CCN)C(=O)N[C@@H](CCN)C(=O)NCCCCCCCCCCCC(=O)N[C@@H](CCN)C(N)=O [C10BBc12B, decanoyl-bis.diaminobutyrate-aminododecanoyl-diaminobutyrate-amide] (Decanoyl-[Dab][Dab][12Ado][Dab]-NH2)
[1]
  displacement of LPS-bound DPMB: inferior ability
E. coli 25922
  CM depolarization (trans-membrane potential): unable to affect the trans-membrane potential
[2]
  time with antibiotics potentiating concentrations (≥ 2.5 µg/ml) maintained: > 2 h
[2]; n = 3 per time point
  time after which most lipopeptide cleared from the bloodstream: ~ 180 min
K. pneumoniae 1287
  sensitization efficiency to rifampin: 130,000 folds
Murine RBC
  LC50 Erythrocytes (50% hemolysis): > 50 µM
[3]
  signs of distress: no apparent physiological signs of distress
